Assays:
FAAH = target: T1, FAAH (Homo sapiens, UniProt O00519); assay: FAAH activity: hydrolysis of [3H]-AEA in U937 cell homogenates; assay type: biochemical; details: [3H]-AEA hydrolysis, final 100 nM AEA, read-out: FAAH inhibition IC50
T1 construct: endogenous in cells; host or cells: U937 cell homogenate
T1 sequence (O00519 1-579): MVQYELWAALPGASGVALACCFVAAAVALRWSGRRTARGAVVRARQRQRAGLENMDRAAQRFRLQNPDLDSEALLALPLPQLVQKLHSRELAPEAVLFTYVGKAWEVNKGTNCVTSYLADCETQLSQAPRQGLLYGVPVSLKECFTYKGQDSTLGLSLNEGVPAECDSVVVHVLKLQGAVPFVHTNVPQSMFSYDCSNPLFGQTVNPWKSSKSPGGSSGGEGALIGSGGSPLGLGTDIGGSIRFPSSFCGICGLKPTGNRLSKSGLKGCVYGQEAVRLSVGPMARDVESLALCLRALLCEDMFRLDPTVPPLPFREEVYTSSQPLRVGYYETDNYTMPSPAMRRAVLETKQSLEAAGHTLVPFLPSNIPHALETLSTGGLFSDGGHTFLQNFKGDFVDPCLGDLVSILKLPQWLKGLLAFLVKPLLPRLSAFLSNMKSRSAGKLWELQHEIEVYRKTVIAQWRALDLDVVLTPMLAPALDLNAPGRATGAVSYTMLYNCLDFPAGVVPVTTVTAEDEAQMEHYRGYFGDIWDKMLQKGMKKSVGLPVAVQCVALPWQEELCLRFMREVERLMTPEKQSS
Procedure: Hydrolysis of [^3H]-AEA by FAAH was determined as previously described in cell homogenates of U937 cells (0.18 mg protein) (Omeir et al., 1999, Biochem Biophys Res Commun, 264, 316-20; Mor et al., 2004, J Med Chem, 47, 4998-5008). Protein amounts of cell homogenates corresponded to 0.5×10^6 cells (U937), to assure best possible comparability of IC50 values as used for the AEA cellular uptake assays. URB597 was used as positive control. Protein quantification was performed using a BCA assay (Thermo Scientific). Enzyme activity was assessed by addition of vehicle or compounds in 10 μL DMSO to 490 μL homogenate in 10 mM Tris HCl, 1 mM EDTA, 0.1% (w/v) BSA fatty acid free, pH=8 and incubation for 15 min at 37° C. After, a mixture of AEA plus [ethanolamine-1-^3H]-AEA (0.5 nM) at final 100 nM was added to the homogenates and incubated for 15 min at 37° C. The reaction was stopped by addition of 1 mL ice-cold CHCl3:MeOH (1:1) followed by vigorous vortexing. Phase separation was achieved by centrifugation at 10'000×g at 4° C. for 10 min. Radioactivity of the separated aqueous phase (upper phase) containing [^3H-ethanolamine] or [^3H-glycerol] was measured by liquid scintillation counting on a Tri-Carb 2100 TR liquid scintillation analyzer after addition of 3.5 mL Ultima Gold scintillation cocktail (PerkinElmer Life Sciences). Results are expressed as hydrolysis of tritium substrate in percent of vehicle treated control. IC50 values were calculated by GraphPad®. Data are reported as means of n=3 independent experiments performed in triplicates.

[1] = system: AEA cellular uptake (U937 cells); assay: [3H]-AEA cellular uptake inhibition in U937 cells; assay type: cell-based; details: Homo sapiens, U-937, U937 cells, final 100 nM AEA with 0.5 nM [3H]-AEA, 15 min at 37° C.; read-out: AEA uptake IC50
Method in brief: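 U937 cells (0.5×10^6 per sample) pre-incubated with compound (100 pM–100 μM, triplicates) for 15 min at 37 °C, then given 100 nM AEA including 0.5 nM [3H]-AEA for 15 min. Filtration, washing and scintillation counting of cell-associated radioactivity; IC50 by four-parameter nonlinear regression.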

Structure (SMILES)	IC50 (FAAH) [µM]	IC50 [1] [nM]
O=C1/C(=C/c2ccc3c(c2)OCCO3)S/C(=N\Cc2ccccc2)N1Cc1ccccc1 [24_C_C, (2Z,5Z)-3-benzyl-2-(benzylimino)-5-((2,3-dihydrobenzo[b][1,4]dioxin-7-yl)methylene)thiazolidin-4-one]	> 100	–
Cc1ccc(/N=C2\S/C(=C\c3ccc4[nH]cnc4c3)C(=O)N2c2ccc(C)cc2)cc1 [04_A_A, (2Z,5Z)-5-((1H-benzo[d]imidazol-5-yl)methylene)-2-(p-tolylimino)-3-p-tolylthiazolidin-4-one]	> 100	390
COc1ccc(/N=C2\S/C(=C\c3ccc(CO)cc3)C(=O)N2c2ccccc2)cc1 [22_F_N, (2Z,5Z)-5-(4-(hydroxymethyl)benzylidene)-2-(4-methoxyphenylimino)-3-phenylthiazolidin-4-one]	> 100	135
Cc1ccc(N2C(=O)/C(=C/c3ccc(CO)cc3)S/C2=N\c2ccc(F)cc2)cc1 [22_B_A, (2Z,5Z)-5-(4-(hydroxymethyl)benzylidene)-2-(4-fluorophenylimino)-3-p-tolylthiazolidin-4-one]	> 100	386
O=C1/C(=C/c2ccc3[nH]ccc3c2)S/C(=N\Cc2ccc(F)cc2)N1c1ccccc1 [03_P_N, (2Z,5Z)-5-((1H-indol-5-yl)methylene)-2-(4-fluorobenzylimino)-3-phenylthiazolidin-4-one]	< 10	403
CC(C)CN1C(=O)/C(=C/c2ccc3c(c2)OCCO3)S/C1=N\c1ccc(F)cc1 [24_B_X, (2Z,5Z)-2-(4-fluorophenylimino)-5-((2,3-dihydrobenzo[b][1,4]dioxin-6-yl)methylene)-3-isobutylthiazolidin-4-one]	> 100	162
O=C1/C(=C/c2ccc3c(c2)OCCO3)S/C(=N\Cc2ccccc2)N1c1ccccc1 [24_C_N, (2Z,5Z)-2-(benzylimino)-5-((2,3-dihydrobenzo[b][1,4]dioxin-6-yl)methylene)-3-phenylthiazolidin-4-one]	1.59	170
Cc1ccc(/N=C2\S/C(=C\c3ccc(CO)cc3)C(=O)N2CC(C)C)cc1 [22_A_X, (2Z,5Z)-5-(4-(hydroxymethyl)benzylidene)-2-(p-tolylimino)-3-isobutylthiazolidin-4-]	> 100	150
Cc1ccc(/N=C2\S/C(=C\c3ccc4c(c3)OCCO4)C(=O)N2c2ccc(C)cc2)cc1 [24_A_A, (2Z,5Z)-2-(p-tolylimino)-5-((2,3-dihydrobenzo[b][1,4]dioxin-6-yl)methylene)-3-p-tolylthiazolidin-4-one]	> 100	286
COCc1cccc(/C=C2\S/C(=N\Cc3ccc(OC)cc3)N(c3ccccc3)C2=O)c1 [15_Q_N, (2Z,5Z)-5-(3-(methoxymethyl)benzylidene)-2-(4-methoxybenzylimino)-3-phenylthiazolidin-4-one]	< 10	368
Cc1ccc(/N=C2\S/C(=C\c3ccc(CO)cc3)C(=O)N2c2ccc(C)cc2)cc1 [22_A_A, (2Z,5Z)-5-(4-(hydroxymethyl)benzylidene)-2-(p-tolylimino)-3-p-tolylthiazolidin-4-one]	> 100	341
Cc1ccc(N2C(=O)/C(=C/c3ccc4c(c3)OCCO4)S/C2=N\c2ccccc2)cc1 [24_N_A, (2Z,5Z)-5-((2,3-dihydrobenzo[b][1,4]dioxin-6-yl)methylene)-2-(phenylimino)-3-p-tolylthiazolidin-4-one]	> 100	334
Cc1ccc(/N=C2\S/C(=C\c3ccc(CO)cc3)C(=O)N2c2ccccc2)cc1 [22_A_N, (2Z,5Z)-5-(4-(hydroxymethyl)benzylidene)-2-(p-tolylimino)-3-phenylthiazolidin-4-one]	19.5	111
O=C1/C(=C/c2ccc3[nH]cnc3c2)S/C(=N\c2ccc(F)cc2)N1C1CCCCC1 [04_B_I, (2Z,5Z)-5-((1H-benzo[d]imidazol-5-yl)methylene)-2-(4-fluorophenylimino)-3-cyclohexylthiazolidin-4-one]	22.9	132
O=C1/C(=C/c2ccc3c(c2)OCCO3)S/C(=N\Cc2ccccc2)N1c1ccc(F)cc1 [24_C_B, (2Z,5Z)-2-(benzylimino)-3-(4-fluorophenyl)-5-((2,3-dihydrobenzo[b][1,4]dioxin-7-yl)methylene)thiazolidin-4-one]	> 100	–
O=C1/C(=C/c2ccc3c(c2)OCCO3)S/C(=N\c2ccc(F)cc2)N1C1CCCCC1 [22_B_I]	> 100	–
COc1ccc(N2C(=O)/C(=C/c3ccc4c(c3)OCCO4)S/C2=N\Cc2ccccc2)cc1 [24_C_F, (2Z,5Z)-2-(benzylimino)-5-((2,3-dihydrobenzo[b][1,4]dioxin-7-yl)methylene)-3-(4-methoxyphenyl)thiazolidin-4-one]	> 100	–

More lines, now with the values ahead:

IC50 (FAAH) [µM]	IC50 [1] [nM]	Structure (SMILES)
0.037	35	COc1ccc(C/N=C2\S/C(=C\c3ccc4c(c3)OCCO4)C(=O)N2C2CCCCC2)cc1 [24_Q_I, (2Z,5Z)-2-(4-methoxybenzylimino)-3-cyclohexyl-5-((2,3-dihydrobenzo[b][1,4]dioxin-6-yl)methylene)thiazolidin-4-one]
0.437	373	COc1ccc(C/N=C2\S/C(=C\c3ccc4c(c3)OCCO4)C(=O)N2c2ccccc2)cc1 [24_Q_N, (2Z,5Z)-2-(4-methoxybenzylimino)-5-((2,3-dihydrobenzo[b][1,4]dioxin-7-yl)methylene)-3-phenylthiazolidin-4-one]
> 100	172	CC(C)CN1C(=O)/C(=C/c2ccc3c(c2)OCCO3)S/C1=N\c1ccccc1 [24_N_X, (2Z,5Z)-5-((2,3-dihydrobenzo[b][1,4]dioxin-6-yl)methylene)-3-isobutyl-2-(phenylimino)thiazolidin-4-one]
2.63	509	CC(C)CN1C(=O)/C(=C/c2ccc3c(c2)OCCO3)S/C1=N\Cc1ccc(F)cc1 [24_P_X, (2Z,5Z)-2-(4-fluorobenzylimino)-5-((2,3-dihydrobenzo[b][1,4]dioxin-6-yl)methylene)-3-isobutylthiazolidin-4-one]
> 100	351	Cc1ccc(/N=C2\S/C(=C\c3ccc4c(cnn4C)c3)C(=O)N2CC(C)C)cc1 [28_A_X, (2Z,5Z)-2-(p-tolylimino)-3-isobutyl-5-((1-methyl-1H-indazol-5-yl)methylene)thiazolidin-4-one]
0.912	530	O=C1/C(=C/c2ccc3c(c2)OCCO3)S/C(=N\Cc2ccc(F)cc2)N1c1ccccc1 [24_P_N, (2Z,5Z)-2-(4-fluorobenzylimino)-5-((2,3-dihydrobenzo[b][1,4]dioxin-6-yl)methylene)-3-phenylthiazolidin-4-one]
> 100	341	Cc1ccc(/N=C2\S/C(=C\c3ccc4ncsc4c3)C(=O)N2C2CCCCC2)cc1 [32_A_I, (2Z,5Z)-2-(p-tolylimino)-5-((benzo[d]thiazol-6-yl)methylene)-3-cyclohexylthiazolidin-4-one]
0.813	85	COc1ccc(C/N=C2\S/C(=C\c3ccc4c(c3)OCCO4)C(=O)N2c2ccc(Cl)cc2)cc1 [24_Q_L, (2Z,5Z)-2-(4-methoxybenzylimino)-3-(4-chlorophenyl)-5-((2,3-dihydrobenzo[b][1,4]dioxin-6-yl)methylene)thiazolidin-4-one]
1.29	33	COc1ccc(C/N=C2\S/C(=C\c3ccc4c(c3)OCCO4)C(=O)N2c2ccc(F)cc2)cc1 [24_Q_B, (2Z,5Z)-2-(4-methoxybenzylimino)-3-(4-fluorophenyl)-5-((2,3-dihydrobenzo[b][1,4]dioxin-6-yl)methylene)thiazolidin-4-one]
